Consider three compounds from patent US20090123474A1, “COMBINATION OF ANGIOPOIETIN-2 ANTAGONIST AND OF VEGF-A, KDR AND/OR FLTL ANTAGONIST FOR TREATING CANCER” (ASTRAZENECA AB, priority 2005, published 2009).

Molecules are shown by their SMILES.

A word on the % inhibition: it is the drop in the measured response relative to a control, in per cent.

Assay type in all cases: in vivo
The test system of assay [1] is human HT29 colon tumour xenografts. Description: HT29 xenograft efficacy study. Particulars: AZD2171 1.5 mg/kg/day p.o. d 0-27, 3.19.3 10 mg/kg i.p. day 0, 3, 7, 10, 14, 17, 21 and 24. The procedure:
The efficacy of mAb 3.19.3 in combination with AZD2171 was evaluated in human HT29 xenografts. Briefly, 5×10^6 HT29 tumour cells in 0.1 ml of serum free Roswell Park Memorial Institute (RPMI)-1640 medium were injected subcutaneously into the flanks of 60 athymic (nu/nu genotype) mice. When tumours reached a volume of 200 to 400 mm^3 (9-10 days), mice were randomized into groups (8 per group) and treatment started (day 0).
The control group (Group 1) received a daily oral (p.o.) administration of vehicle only for 28 consecutive days (day 0-27). Group 2 treatment consisted of a daily p.o. administration of AZD2171 alone at 1.5 mg/kg/administration for 28 consecutive days (day 0-27). AZD2171 was prepared as a suspension in 1% polysorbate 80 (i.e. a 1% (v/v) solution of polyoxyethylene (20) sorbitan mono-oleate in deionised water). […]
Tumour volumes (mm^3) were assessed at least twice weekly by bilateral Vernier caliper measurement and, taking length to be the longest diameter across the tumor and width the corresponding perpendicular, calculated using the formula (π/6)×(length×width)×√ (length×width). Growth inhibition from the start of treatment was assessed by comparison of the differences in tumor volume between control and treated groups. […] For all mice, the tumours were excised and weights recorded upon termination of the study.

Assay [2] deals with A431 human tumour xenografts. Description: A431 xenograft efficacy study (Study A). Particulars: 3.19.3 10 mg/kg 2×wk i.p., VTKI 3 mg/kg/day p.o. The procedure:
(§1) The anti-tumor activity of monoclonal antibody 3.19.3 in combination with the VTKI 4-(4-fluoro-2-methylindol-5-yloxy)-6-methoxy-7-(3-piperidinopropoxy)quinazoline was evaluated in a xenograft model of human skin epidermoid carcinoma (Study A) and in a model of colorectal cancer (Study B) by using the A431 and Colo205 cell lines respectively.
(§2) A431 and Colo205 cells were cultured in flasks as routine until the cells reached sub-confluence. Immunodeficient 6-8 week old female mice (Ncr/nu/nu) were used. The cells were harvested and suspended in Matrigel. A cell suspension containing 1 to 5×10^6 cells was injected subcutaneously into the flank of the mice. The mice were randomized into different groups, each containing 10-15 mice. When the tumour volume reached 200 mm^3, the mice were randomized in each groups and the treatments were initiated. mAb 3.19.3 10 mg/kg in saline was injected intraperitoneally, twice per week for 2 weeks. 4-(4-fluoro-2-methylindol-5-yloxy)-6-methoxy-7-(3-piperidinopropoxy)quinazoline was treated peroral daily at doses ranging from 1.5 to 6 mg/kg in water containing 1% Tween80. The dimensions of each tumor were measured twice per week. The volume of the tumor was calculated as: Volume=Length×(Width)^2×0.5 (cm^3).

The subject of assay [3] is human Colo205 colon tumour xenografts. Description: Colo205 xenograft efficacy study (Study B). Particulars: 3.19.3 10 mg/kg 2×wk i.p., VTKI 6 mg/kg/day p.o. The procedure:
as §1, §2

In assay [4] the test system is human LoVo colon tumour xenografts. The conditions noted are these: 3.19.3 10 mg/kg 2×wk i.p., Zactima 50 mg/kg/day p.o. The procedure: The anti-tumor activity of monoclonal antibody 3.19.3 was evaluated in the LoVo xenograft model of colorectal cancer. Briefly, LoVo cells were cultured in flasks as routine until the cells reached sub-confluence. Immunodeficient 8 week old male NCr nude mice were used. Cell suspensions containing 3×10^6 cells were injected subcutaneously into the right flank of the mice, and after the tumour volume reached 200 mm^3, the mice were randomized in groups and the treatments were initiated. mAb 3.19.3 10 mg/kg in saline was injected intraperitoneally, twice per week for 2 weeks. Zactima™ was treated peroral daily at doses ranging from 25 to 50 mg/kg in water containing 1% Tween80. The dimensions of each tumor were measured twice per week. The volume of the tumor was calculated as: Volume=Length×(Width)^2×0.5 (cm^3).

On to `COc1cc2c(Oc3ccc4[nH]c(C)cc4c3F)ncnc2cc1OCCCN1CCCC1` [AZD2171, reference compound], for which the “Inhibition of Control Tumour Growth Day 28” value in assay [1] was determined as 55%.

With `COc1cc2c(Oc3ccc4[nH]c(C)cc4c3F)ncnc2cc1OCCCN1CCCCC1` [4-(4-fluoro-2-methylindol-5-yloxy)-6-methoxy-7-(3-piperidinopropoxy)quinazoline, reference compound], in assay [2], the “% tumor growth inhibition” value came out at 69%. In addition, in assay [3], the “% inhibition” value stood at 57%.

As to `COc1cc2c(Nc3ccc(Br)cc3F)ncnc2cc1OCC1CCN(C)CC1` [Zactima™, reference compound], the tumour inhibition in assay [4] is 46%.
